The record followed here is patent US9187415B2, “Sulfonamides as HIV protease inhibitors” (Merck Canada Inc., priority 2010, dated 2015).

The IC50 is the concentration needed to halve the response being measured. The IC95 is the concentration needed for an effect of 95%.

Read-outs that look alike come from different tables or passages of the source.

Test [1] has as its target T1, HIV-1 protease (wild type) (Human immunodeficiency virus type 1 group M subtype B, UniProt P04585).
T1 construct: made in house; host or cells: Escherichia coli
In words: Protease Inhibition Assay (Pepcleave), inhibition of microbial expressed HIV protease. Type of test: biochemical. The protocol:
Assay for Inhibition of Microbial Expressed HIV Protease
Inhibition studies of the reaction of the protease (which was expressed in Eschericia coli) with a peptide substrate [Val-Ser-Gln-Asn-(betanaphtyl)Ala-Pro-Ile-Val]. The inhibitor is first preincubated with the HIV-1 protease (wild type) enzyme in assay buffer (50 mM sodium acetate, pH 5.5, 100 mM NaCl, and 0.1% BSA) for 30 minutes at room temperature. Substrate is added to 400 micromolar in a total volume of 80 microliters containing 10 picomolar HIV-1 protease and the reaction is incubated for 1 hour at 30° C. The reaction is quenched with the addition of 120 microliters of 10% phosphoric acid. The product formation is determined after separation of product and substrate on a Zorbax Eclipse XDB-C18 column connected to an Agilent 1100 high performance liquid chromatography system with fluorescence detection (excitation 270 nanometer and emission 330 nanometer). Alternatively, the inhibitor is preincubated with enzyme and substrate as described above, but in a total volume of 20 microliters containing 20 picomolar HIV-1 protease and the reaction is incubated for 1 hour at 30° C. The reaction is quenched with the addition of 30 microliters of 1 micromolar indinavir (indinavir is also used as an internal standard), and the product formation is determined after separation of product and substrate on a Zorbax Eclipse XDB-C18 column connected to an API 4000 mass spectrometer (Applied Biosystems) with multiple reaction monitoring (transitions were 644.5/428.9 and 615.4/422.2 (M1/M3) for product and indinavir respectively). The extent of inhibition of the reaction is determined from the peak area of the products. HPLC of the products, independently synthesized, provided quantitation standards and confirmation of the product composition.
Protease Inhibition Assay (“Pepcleave”) data were collected based on the wild-type HIV-1 protease enzyme. The assay monitors the cleavage of a 8-mer peptide (VSQN[β-Nal]PIV) where the tyrosine at P1 position is replaced by β-Naphthyl-alanine. Upon cleavage of the peptide by HIV-1 protease, the product is separated from substrate by HPLC column and detected at Ex.=270 nm/Em=330 nm.

Test [2] deals with human immunodeficiency virus type 1. In words: Acute Infection Assay (Spread). Type of test: cell-based, HIV-1. The text has this: Acute Infection Assay (“Spread”) data were generated in 10% FBS, and according to the methods disclosed by J. P. Vacca et al, “L-735,524: An orally bioavailable human immunodeficiency virus type 1 protease inhibitor,” Proc. Nati. Acad. Sci. USA, Vol. 91, pp. 4096-4100 (April 1994).

Where [3] appears, read: wild-type HIV-1 protease, mean of at least two independent experiments, read-out: Pepcleave Enzyme inhibition IC50.
The mark [4] stands for this setting: Human immunodeficiency virus 1, 10% FBS, mean of at least two independent experiments, read-out: Spread IC95.

For the compound `COC(=O)N[C@H](C(=O)Nc1ccccc1CC[C@@H](CO)N(CC1CC1)S(=O)(=O)c1ccc(N)cc1)C(c1ccccc1)c1ccccc1` [Example 3, N-{2-[(3S)-3-{[(4-aminophenyl)sulfonyl](cyclopropylmethyl)amino}-4-hydroxybutyl]phenyl}-Nα-(methoxycarbonyl)-β-phenyl-L-phenylalaninamide], the half-maximal inhibitory concentration (IC50) in test [1] (setting [3]) is 0.2 nM. Moreover, the IC95 in test [2] (Human immunodeficiency virus 1, read-out: Spread IC95) turned out to be 0.307 µM. As to `COC(=O)N[C@H](C(=O)Nc1cccc(C[C@@H](CO)N(C(C)C)S(=O)(=O)c2ccc(N)cc2)c1)C(c1ccccc1)c1ccccc1` [Example 34, N-{3-[(2S)-2-{[(4-aminophenyl)sulfonyl](propan-2-yl)amino}-3-hydroxypropyl)phenyl}-Nα-(methoxycarbonyl)-β-phenyl-L-phenylalaninamide], the concentration for half-maximal inhibition (IC50) in test [1] (setting [3]) was 41.6 nM. For the compound `COC(=O)N[C@H](C(=O)Nc1cccnc1CC[C@@H](CO)N(Cc1cnoc1)S(=O)(=O)c1ccc2ncsc2c1)C(c1ccccc1)c1ccccc1` [Example 18, N-(2-{(3S)-3-[(1,3-benzothiazol-6-ylsulfonyl)(isoxazol-4-ylmethyl)amino]-4-hydroxybutyl}pyridin-3-yl)-Nα-(methoxycarbonyl)-β-phenyl-L-phenylalaninamide], the IC50 in test [1] (setting [3]) stood at 2.3 nM. In addition, the IC95 in test [2] (setting [4]) stood at 0.755 µM.

`[2H]C([2H])([2H])C([2H])([2H])C([2H])([2H])N([C@H](CO)CCc1ccccc1NC(=O)[C@@H](NC(=O)OC)C(c1ccccc1)c1ccccc1)S(=O)(=O)c1ccc2ncsc2c1` [Example 10, N-(2-{(3S)-3-[(1,3-benzothiazol-6-ylsulfonyl)(propyl-d7)amino]-4-hydroxybutyl}phenyl)-Nα-(methoxycarbonyl)-β-phenyl-L-phenylalaninamide] had an IC50 in test [1] of 0.7 nM. Also, the 95% effect concentration (IC95) in test [2] (setting [4]) came to 1.19 µM. For the compound `[2H]C([2H])([2H])C([2H])(C([2H])([2H])[2H])C([2H])([2H])N([C@H](CO)C([2H])([2H])C([2H])([2H])c1ccccc1NC(=O)[C@@H](NC(=O)OC)C(c1ccccc1)c1ccccc1)S(=O)(=O)c1ccc2ncsc2c1` [Example 22, N-(2-{(3S)-3-[(1,3-benzothiazol-6-ylsulfonyl)(2-methylpropyl-d7)amino]-1-d2-2-d2-4-hydroxybutyl}phenyl)-Nα-(methoxycarbonyl)-β-phenyl-L-phenylalaninamide], the half-maximal inhibitory concentration (IC50) in test [1] (setting [3]) turned out to be 1.7 nM.

Take `COC(=O)N[C@H](C(=O)Nc1ccccc1S(=O)(=O)C[C@@H](CO)N(CCC(C)C)S(=O)(=O)c1ccc(N)cc1)C(c1ccccc1)c1ccccc1` [Example 29, N-(2-{[(2R)-2-{[(4-aminophenyl)sulfonyl)(3-methylbutyl)amino}-3-hydroxypropyl]sulfonyl}phenyl)-Nα-(methoxycarbonyl)-β-phenyl-L-phenyl alaninamide]: the half-maximal inhibitory concentration (IC50) in test [1] (setting [3]) stood at 2.9 nM. The IC95 in test [2] (setting [4]) came to 1.25 µM.

As for `COC(=O)N[C@H](C(=O)Nc1ccccc1CC[C@@H](CO)N(CCC(C)C)S(=O)(=O)c1ccc(N)cc1)C(c1ccccc1)c1ccccc1` [Example 1, N-{2-[(3S)-3-{[(4-aminophenyl)sulfonyl](3-methylbutyl)amino}-4-hydroxybutyl]phenyl}-Nα-(methoxycarbonyl)-β-phenyl-L-phenylalaninamide], the IC50 in test [1] (setting [3]) was 0.02 nM. Moreover, the IC95 in test [2] (setting [4]) came out at 0.074 µM. The like results for `COC(=O)N[C@H](C(=O)Nc1cnccc1CC[C@@H](CO)N(Cc1cncnc1C)S(=O)(=O)c1ccc2ncsc2c1)C(c1ccccc1)c1ccccc1` [Example 20, N-{4-[(3S)-3-{(1,3-benzothiazol-6-ylsulfonyl)[(4-methylpyrimidin-5-yl)methyl]amino}-4-hydroxybutyl]pyridin-3-yl}-Nα-(methoxycarbonyl)-β-phenyl-L-phenylalaninamide] were, in that order, 3.5 nM and 2.2 µM.

For the compound `[2H]C([2H])([2H])C([2H])([2H])N([C@H](CO)Cc1cccc(NC(=O)[C@@H](NC(=O)OC)C(c2ccccc2)c2ccccc2)c1)S(=O)(=O)c1ccc(N)cc1` [Example 33, N-{3-[(2S)-2-{[(4-aminophenyl)sulfonyl](ethyl-d5)amino}-3-hydroxypropyl]phenyl}-Nα-(methoxycarbonyl)-β-phenyl-L-phenylalaninamide], the IC50 in test [1] (setting [3]) turned out to be 50.2 nM. In the case of `COC(=O)N[C@H](C(=O)Nc1cccnc1CC[C@@H](CO)N(Cc1cncnc1C)S(=O)(=O)c1ccc2ncsc2c1)C(c1ccccc1)c1ccccc1` [Example 19, N-[2[(3S)-3-{(1,3-benzothiazol-6-ylsulfonyl)[(4-methylpyrimidin-5-yl)methyl]amino)-4-hydroxybutyl]pyridin-3-yl]-Nα-(methoxycarbonyl)-β-phenyl-L-phenylalaninamide], the IC50 in test [1] (setting [3]) is 4.2 nM. Further, the concentration for an effect of 95% (IC95) in test [2] (setting [4]) was 0.766 µM. Compound `COC(=O)N[C@H](C(=O)Nc1ccccc1CC[C@@H](CO)N(Cc1cn(C)nc1C)S(=O)(=O)c1ccc2ncsc2c1)C(c1ccccc1)c1ccccc1` [Example 11, N-{2-[(3S)-3-{(1,3-benzothiazol-6-ylsulfonyl)[(1,3-dimethyl-1H-pyrazol-4-yl)methyl]amino}-4-hydroxybutyl]phenyl}-Nα-(methoxycarbonyl)-β-phenyl-L-phenylalaninamide] came in with a half-inhibitory concentration (IC50) in test [1] of 0.05 nM. In addition, the IC95 in test [2] (setting [4]) was determined as 0.683 µM. On to `COC(=O)N[C@H](C(=O)Nc1cccc(C[C@@H](CO)N(C(C)C)S(=O)(=O)c2ccc(CO)cc2)c1)C(c1ccccc1)c1ccccc1` [Example 35, N-(3-{(2S)-3-hydroxy-2[{[4-(hydroxymethyl)phenyl]sulfonyl}(propan-2-yl)amino]propyl}phenyl)-Nα-(methoxycarbonyl)-β-phenyl-L-phenylalaninamide], for which, in test [1] (setting [3]), the IC50 came out at 18.9 nM. Still for that read-out and setting: with `COC(=O)N[C@@H](Cc1ccccc1Cl)C(=O)Nc1ccccc1CC[C@@H](CO)N(Cc1cn(C)nc1C)S(=O)(=O)c1ccc2ncsc2c1` [Example 17, N-{2-[(3S)-3-{(1,3-benzothiazol-6-ylsulfonyl)[(1,3-dimethyl-1H-pyrazol-4-yl)methyl]amino}-4-hydroxybutyl]phenyl}-2-chloro-Nα-(methoxycarbonyl)-L-phenylalaninamide] the figure was 10 nM; with `[2H]C([2H])(c1ccccc1NC(=O)[C@@H](NC(=O)OC)C(c1ccccc1)c1ccccc1)C([2H])([2H])[C@@H](CO)N(CC(C)C)S(=O)(=O)c1ccc2ncsc2c1` [Example 21, N-(2-{(3S)-3-[(1,3-benzothiazol-6-ylsulfonyl)(2-methylpropyl)amino]-1-d2-2-d2-4-hydroxybutyl}phenyl)-Nα-(methoxycarbonyl)-β-phenyl-L-phenylalaninamide], 3.7 nM. As to `COC(=O)N[C@H](C(=O)Nc1ccccc1CC[C@@H](CO)N(CC(C)C)S(=O)(=O)c1ccc2ncsc2c1)C(c1ccccc1)c1ccccc1` [Example 7, N-(2-{(3S)-3-[(1,3-benzothiazol-6-ylsulfonyl)(2-methylpropyl)amino]-4-hydroxybutyl}phenyl)-Nα-(methoxycarbonyl)-β-phenyl-L-phenylalaninamide], the half-inhibitory concentration (IC50) in test [1] (setting [3]) stood at 1.6 nM. For `COC(=O)N[C@@H](Cc1ccccc1Cl)C(=O)Nc1ccccc1CC[C@@H](CO)N(CCC(C)C)S(=O)(=O)c1ccc2ncsc2c1` [Example 16, N-(2-{(3S)-3-[(1,3-benzothiazol-6-ylsulfonyl)(3-methylbutyl)amino]-4-hydroxybutyl}phenyl)-2-chloro-Nα-(methoxycarbonyl)-L-phenylalaninamide], the half-maximal inhibitory concentration (IC50) in test [1] (setting [3]) was 8.1 nM.
